The values that follow come from US10406227B2, “Photoactivated molecules for light-induced modulation of the activity of electrically excitable cells and methods of using same” (University of Southern California, priority 2012, dated 2019).

One series concerns INS cells. In words: Imaging RubpyC17 in live cells (membrane luminescence). The format is cell-based, rat. How it is done:
Cells were imaged at 1-3 days after plating. The glass-bottomed chambers with adherent cells were washed twice with PBS and then filled with standard extracellular solution consisting of 140 mM NaCl, 2.8 mM KCl, 10 mM HEPES, 1 mM MgCl2, 2 mM CaCl2, and 10 mM glucose, pH adjusted to 7.2-7.4 and osmolarity adjusted to 290-310 mOsm. The chamber was then mounted on an Olympus IX70 inverted microscope stage for imaging, using a Cascade 512B EMCCD camera, operated by Metamorph software. Initial imaging was done with cells in extracellular solution without RubpyC17, first under brightfield to evaluate cell health and morphology, then under widefield argon ion laser illumination at 488 nm (Coherent, Innova 90-5, Santa Clara, Calif.), to evaluate autofluorescence. Next, the extracellular solution was removed and replaced with extracellular solution containing the RubpyC17 compound (10 μM in ≤0.01% DMSO, final concentrations). Cell images were then acquired with illumination at 488 nm (collected with a long-pass red emission filter). For electrophysiological experiments, RubpyC17 compound was added to the extracellular solution (2-10 μM in ≤0.01% DMSO, final concentrations as indicated) and cells were incubated for 1.5-45 min, as indicated, then washed with extracellular solution without RubpyC17. Some chromaffin cells were also exposed continuously to 490-900 nM RubpyC17-containing extracellular solution.
Illustrated here are rat insulinoma INS cells (FIG. 1C, top), human embryonic kidney (HEK293T) cells (FIG. 1C, middle), and primary cultured mouse chromaffin cells (FIG. 1C, bottom). […] All cell types preserved morphology for at least 10 minutes. […] One embodiment of the possible light-induced electron transfer is depicted in FIG. 1D.

The next series has as its system INS and HEK293T cells. As to the kind of experiment: Time course of light-induced membrane potential change in single cells (patch clamp). The format is cell-based. How it is done: Membrane potential was monitored using whole cell patch clamp in current-clamp mode. Cultured cells (INS and HEK293) were plated on a glass-bottomed culture dishes 1-3 days prior to recording. Cells were incubated in standard extracellular solution with or without 10 μM RubpyC17 compound for approximately 1.5-2 minutes, then washed and incubated with standard extracellular solution without additional supplementation, or with 2-5 mM ascorbate, 100 μM sodium ferrocyanide, or 100-200 μM potassium ferricyanide, as indicated. The chamber was transferred to the microscope stage. Extracellular solution consisted of 140 mM NaCl, 2.8 mM KCl, 10 mM HEPES, 1 mM MgCl2, 2 mM CaCl2, 10 mM glucose, pH adjusted to 7.3, and osmolarity adjusted to 300-310. Conventional whole-cell patch clamp recordings were performed with an EPC-9 amplifier and Pulse software (HEKA Electronics). Pipette electrodes of 1.8-3.5 Mohm were fire polished before use. Intracellular solution consisted of: 145 mM KCl, 10 mM NaCl, 1 mM MgCl2, 1 mM EGTA, 2 mM ATP, 0.3 mM GTP and 10 mM HEPES, pH adjusted to 7.3 and osmolarity adjusted to 290-300 mOsm. To monitor changes in membrane voltage/potential, cells were patch clamped in current-clamp mode. Access resistances were in the range of 3-8 Mohm. Using Pulse, membrane potentials were recorded before, during and after illumination by the argon ion laser at 488 nm with an irradiance value of 0.458 mE s^−1 m^−2 or by a xenon lamp source through a 470/40 nm bandpass excitation filter with an irradiance value of 0.480 mE s^−1 m^−2. The duration of illumination varied and the timing is indicated by bars on the figures.
It was discovered that luminescent cells undergo depolarization when illuminated for 25 seconds or longer when reductants (e.g., ascorbate) are present or for 10 seconds or longer when oxidants (e.g., ferricyanide) are present (FIG. 2A). Other oxidants or reductants are used in several embodiments, such as those that are, normally present (or biologically compatible) in the environment of a certain target tissue. In several embodiments, it is possible that light-induced depolarization or hyperpolarization amplitude or rate is controlled by varying illumination time or intensity.
To reach a maximum effect, the light-triggered depolarization in RubpyC17-treated cells requires on the order of 30 seconds of continuous illumination at 0.46-0.48 mE s−1 m2 (FIGS. 2B-F) The time course observed is dependent on several factors, and may be greater or lesser during in vivo applications. One, it is related to the probability of photon absorption per unit time by membrane-associated RubpyC17, which depends on the concentration of RubpyC17, the partitioning into the membrane, and the photon flux. […]

The subject of another series is mouse chromaffin cells. As to the kind of experiment: Carbon fiber amperometry of light-triggered secretion. The format is cell-based. The procedure:
Carbon fiber electrodes were prepared using established methodology and coupled to an EPC10 amplifier. A+800 mV constant voltage was applied to the electrode relative to the Ag/AgCl bath electrode. The amperometry recordings were sampled at 4 kHz using Pulsemaster (HEKA). Extracellular composition consisted of 120 mM NaCl, 20 mM KCl, 10 mM HEPES, 1 mM MgCl2, 2 mM CaCl2, 10 mM glucose, pH adjusted to 7.2-7.4, and osmolarity adjusted to 290-300. Light stimulation in the blue spectrum originated from a xenon lamp source through a 470/40 nm bandpass excitation filter. The duration of illumination varied and is indicated by bars on figures.
Action potential firing triggers secretion of norepinephrine and epinephrine from adrenal chromaffin cells, which can be readily detected by the technique of carbon-fiber amperometry, thus serving as a surrogate to detect action potential firing. […] Out of 18 RubpyC17-loaded cells tested, 15 cells (83%) experienced increased secretion by at least 100-fold during light illumination. Unlike the changes in light-induced depolarization, light-induced changes in secretion appeared to be more transient. One possible explanation for this is that at any moment in time, there are only a small number of release-competent vesicles—the so-called readily releasable pool of vesicles—and maintained stimulation causes rapid depletion of the readily releasable pool of vesicles in the initial phase of stimulation.

A value given as a limit tells only on which side of the number the result lay.

On to [Ru(bpy)2(bpy-C17)](PF6)2 [RubpyC17], for which the “time cell morphology preserved” value in the series on INS cells (10 μM RubpyC17) was “at least 10 minutes”. Besides, in the series with INS cells (10 μM in bath, 488 nm excitation), the “incorporation into plasma membrane (membrane-localized luminescence)” value was “rapidly and stably incorporates into mammalian cell membranes”. Besides, the “membrane luminescence after removal from bath solution” value in the series on INS cells (10 minutes after RubpyC17 removal) is recorded as “still observed”. Also, the “continuous illumination to reach maximum depolarization” value in the series on INS and HEK293T cells (0.46-0.48 mE s−1 m2) was approximately 30 s. Further, the “illumination duration giving membrane potential change” value is not below 10 s with INS and HEK293T cells (oxidants (e.g., ferricyanide) present); not below 25 s with INS and HEK293T cells (reductants (e.g., ascorbate) present). The “reversibility of light-induced depolarization” value in the series with INS and HEK293T cells (presence of reductants) was “appears to be irreversible”. Also, the “light-triggered secretion (amperometric spikes)” value with mouse chromaffin cells (2 μM RubpyC17, 488 nm) was “exhibited numerous amperometric current spikes”. Also, the “cells with increased secretion during light illumination” value in the series with mouse chromaffin cells (15 of 18 RubpyC17-loaded cells) amounted to 83%. Besides, in the series with mouse chromaffin cells (responding cells), the “increase in secretion during light illumination” value was “at least 100 fold”.
